The values below come from article PMC9939733 (The Journal of Biological Chemistry, 2023).

Substitutions are numbered along the chain they refer to.

Format in all cases: biochemical
One assay concerns the target T1, R172K IDH2 (Homo sapiens, UniProt P48735, R172K).
T1 construct: made in house; host or cells: Sf21 insect cells (cell pellets prepared at Evotec)
T1 sequence (P48735 40-452 R172K): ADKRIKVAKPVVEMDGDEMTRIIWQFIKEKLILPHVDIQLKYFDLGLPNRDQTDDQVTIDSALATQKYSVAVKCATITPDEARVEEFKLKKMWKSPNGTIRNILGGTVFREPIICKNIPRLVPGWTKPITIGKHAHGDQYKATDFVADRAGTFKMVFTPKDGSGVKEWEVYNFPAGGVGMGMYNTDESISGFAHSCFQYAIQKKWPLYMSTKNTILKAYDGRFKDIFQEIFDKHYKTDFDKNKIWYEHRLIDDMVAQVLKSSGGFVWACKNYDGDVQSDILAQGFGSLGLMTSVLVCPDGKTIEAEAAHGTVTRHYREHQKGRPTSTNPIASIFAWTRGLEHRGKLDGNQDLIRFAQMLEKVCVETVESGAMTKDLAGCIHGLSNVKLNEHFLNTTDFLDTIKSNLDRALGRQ
As to the kind of experiment: Absorbance assay, variant activity in the presence of equimolar 2OG (inhibition screen). Conditions: 1.0 mM 2OG and 1.0 mM test compound, 0.03 μM R172K IDH2, 50 μM NADPH. On the procedure:
(§1) Compounds were dispensed using a CyBio SDW-CW CyBi-Well Simultaneous Pipettor and assay started using a ThermoFisher Multidrop Combi reagent dispenser.
(§2) Reactions were performed as technical quadruplicates.

For a further assay, the target named is T2, R140Q IDH2 (Homo sapiens, UniProt P48735, R140Q).
T2 construct: made in house; host or cells: Sf21 insect cells (cell pellets prepared at Evotec)
T2 sequence (P48735 40-452 R140Q): T1 sequence (P48735 40-452 R172K) with R101Q, K133R
The description is as above. Particulars: 6.0 mM 2OG and 6.0 mM test compound, 0.03 μM R140Q IDH2, 50 μM NADPH. As for the experimental part: as §1, §2

In assay [1] the target is T3, WT IDH1 (Homo sapiens, UniProt O75874).
T3 construct: made in house; host or cells: Escherichia coli BL21(DE3) pLyS
As to the kind of experiment: Absorbance assay, WT activity in the presence of equimolar DL-isocitrate (inhibition). Conditions: […] isocitrate and […] test compound, 75 μM NADP+, 2.0 nM WT IDH1. As for the experimental part:
as §1, §2

Assay [2] deals with T4, WT IDH2 (Homo sapiens, UniProt P48735).
T4 construct: made in house; host or cells: Sf21 insect cells (cell pellets prepared at Evotec)
T4 sequence (P48735 40-452): T1 sequence (P48735 40-452 R172K) with K133R
Described as above. Particulars: […] isocitrate and […] test compound, 75 μM NADP+, 2.0 nM WT IDH2. On the procedure:
as §1, §2

In a further assay the target is R132H IDH1 (Homo sapiens, UniProt O75874, R132H). As to the kind of experiment: Absorbance assay, variant activity in the presence of equimolar 2OG (inhibition screen). Further details: made in house; host or cells: Escherichia coli BL21(DE3) pLyS. Particulars: […] 2OG and […] test compound, 0.03 μM R132H IDH1, 50 μM NADPH. As for the experimental part: as §1, §2
Assay [3] has as its target T3, WT IDH1. As to the kind of experiment: Absorbance assay, substrate activity in the absence of DL-isocitrate. Conditions: no DL-isocitrate; […] test compound, 75 μM NADP+, 2.0 nM WT IDH1; compared to DL-isocitrate. As for the experimental part:
as §1, §2

The target in assay [4] is T4, WT IDH2. The assay is described as above. Conditions: no DL-isocitrate; […] test compound, 75 μM NADP+, 2.0 nM WT IDH2; compared to DL-isocitrate. As for the experimental part:
as §1, §2

R132H IDH1, sequence (O75874 whole entry R132H): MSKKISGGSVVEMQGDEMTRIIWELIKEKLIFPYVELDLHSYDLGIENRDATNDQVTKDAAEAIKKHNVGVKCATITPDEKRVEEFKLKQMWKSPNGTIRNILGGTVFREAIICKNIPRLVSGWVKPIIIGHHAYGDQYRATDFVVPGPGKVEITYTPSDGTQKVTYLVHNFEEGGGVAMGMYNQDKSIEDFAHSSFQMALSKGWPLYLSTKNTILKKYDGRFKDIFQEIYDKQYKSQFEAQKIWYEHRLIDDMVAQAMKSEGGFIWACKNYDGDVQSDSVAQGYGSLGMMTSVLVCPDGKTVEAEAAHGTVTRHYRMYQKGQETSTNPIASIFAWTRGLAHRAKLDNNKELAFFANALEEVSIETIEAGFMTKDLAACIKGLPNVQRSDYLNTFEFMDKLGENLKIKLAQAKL
T3 sequence (O75874 whole entry): as the sequence (O75874 whole entry R132H) above, with H132R counted along it

On to `O=C(O)CC(Cc1ccc(F)cc1)C(=O)C(=O)O` (racemic) [compound 8], for which the “activity [%] (%-substrate conversion after 20 min incubation)” value (shortened to “activity [%]”) on R172K IDH2 was 106 ± 5%; on R140Q IDH2, 516 ± 40%; at WT IDH1 [1], 96±3%; at WT IDH2 [2], 100±1%; on R132H IDH1, 186 ± 6%; at WT IDH1 [3] it was less than 10%. Besides, the “activity [%]” value at WT IDH2 [4] is given as less than 10%.
With `CC1(C)C(C(=O)O)C1C(=O)C(=O)O` (mixture of isomers) [compound 22], the “activity [%]” value is reported as 110 ± 10% at R172K IDH2; 112 ± 4% on R140Q IDH2; 96±1% on WT IDH1 [1]; 96±1% at WT IDH2 [2]; 92 ± 5% on R132H IDH1.
Consider `CCCC(CC(=O)C(=O)O)C(=O)O` (racemic) [compound 15], for which the “activity [%]” value is reported as 97 ± 5% at R172K IDH2; 116 ± 4% at R140Q IDH2; 95±3% at WT IDH1 [1]; 98±3% on WT IDH2 [2]; 101 ± 7% at R132H IDH1; less than 10% on WT IDH1 [3]. The “activity [%]” value on WT IDH2 [4] was less than 10%.
On to `COc1ccc(CC(CC(=O)O)C(=O)C(=O)O)cc1` (racemic) [compound 9], for which the “activity [%]” value on R172K IDH2 is 111 ± 3%; on R140Q IDH2 it was 125 ± 3%; on WT IDH1 [1] it was 93±2%; on WT IDH2 [2], 98±3%; at R132H IDH1, 200 ± 15%; at WT IDH1 [3], less than 10%. Moreover, at WT IDH2 [4], the “activity [%]” value is listed as less than 10%.
As to `CC(C)(C)CCC(CC(=O)C(=O)O)C(=O)O` (racemic) [compound 17], the “activity [%]” value was 93 ± 3% at R172K IDH2; 119 ± 5% on R140Q IDH2; 95±7% at WT IDH1 [1]; 100±2% at WT IDH2 [2]; 93 ± 3% at R132H IDH1; less than 10% at WT IDH1 [3]. In addition, the “activity [%]” value at WT IDH2 [4] was less than 10%.
`O=C(O)CC(CCCc1ccccc1)C(=O)C(=O)O` (racemic) [compound 6]: the “activity [%]” value is 93 ± 1% at R172K IDH2; 239 ± 37% on R140Q IDH2; 96±1% on WT IDH1 [1]; 99±1% on WT IDH2 [2]; 182 ± 10% at R132H IDH1; less than 10% at WT IDH1 [3]. For the same molecule, on WT IDH2 [4], the “activity [%]” value is less than 10%.
For `O=C(O)C(=O)CC(CCCc1ccccc1)C(=O)O` (racemic) [compound 18], the “activity [%]” value on R172K IDH2 was 74 ± 12%; on R140Q IDH2, 101 ± 3%; at WT IDH1 [1] it was 101±3%; at WT IDH2 [2], 100±1%; on R132H IDH1, 82 ± 3%; at WT IDH1 [3] it was less than 10%. For the same molecule, on WT IDH2 [4], the “activity [%]” value is less than 10%.
Consider `O=C(O)C(=O)C1CC=CCC1C(=O)O` (mixture of isomers) [compound 27], for which the “activity [%]” value was 104 ± 8% on R172K IDH2; 97 ± 4% at R140Q IDH2; 93±1% on WT IDH1 [1]; 92±4% on WT IDH2 [2]; 94 ± 11% on R132H IDH1.
As for `CC(C)(C)CCC(CC(=O)O)C(=O)C(=O)O` (racemic) [compound 5], the “activity [%]” value on R172K IDH2 is 98 ± 3%; on R140Q IDH2, 146 ± 4%; at WT IDH1 [1] it was 95±6%; on WT IDH2 [2], 98±1%; on R132H IDH1, 142 ± 14%; on WT IDH1 [3], less than 10%. Moreover, the “activity [%]” value at WT IDH2 [4] is reported as less than 10%.
Take `O=C(O)C(=O)CC(Cc1ccccc1)C(=O)O` (racemic) [compound 19]: the “activity [%]” value at R172K IDH2 is listed as 102 ± 5%; on R140Q IDH2 it was 106 ± 4%; on WT IDH1 [1], 98±2%; on WT IDH2 [2], 97±3%; on R132H IDH1 it was 116 ± 17%; on WT IDH1 [3] it was less than 10%. Also, at WT IDH2 [4], the “activity [%]” value is reported as less than 10%.
With `O=C(O)C(=O)c1ccc(C(=O)O)cc1` [compound 30], the “activity [%]” value on R172K IDH2 was found to be 110 ± 8%; at R140Q IDH2, 94 ± 3%; on WT IDH1 [1], 101±2%; on WT IDH2 [2] it was 100±4%; at R132H IDH1 it was 103 ± 2%.
For `O=C(O)C(=O)C1CCC(C(=O)O)CC1` (mixture of isomers) [compound 25], the “activity [%]” value on WT IDH1 [1] is 104±6%; at WT IDH2 [2], 92±9%.
As for `O=C(O)C(=O)c1cscc1C(=O)O` [compound 31], the “activity [%]” value is on record as 99 ± 3% at R172K IDH2; 113 ± 4% on R140Q IDH2; 103±1% at WT IDH1 [1]; 101±2% on WT IDH2 [2]; 102 ± 5% on R132H IDH1.
Taken in the same sequence, the figures for `O=C(O)C(=O)c1cccc(C(=O)O)c1` [compound 29] were 93 ± 7%, 95 ± 7%, 94±2%, 99±1% and 88 ± 2%.
`O=C(O)C(=O)C1C2C=CC(C2)C1C(=O)O` (racemic) [compound 28]: the results for the “activity [%]” value at R140Q IDH2, at WT IDH2 [2] and on R132H IDH1 were 114 ± 4%, 99±1% and 116 ± 4%, respectively.
